Source: PMC13070491, “Single-nucleus transcriptomics, pharmacokinetics, and pharmacodynamics of CDK4/6 and mTOR inhibition in a Phase 0/1 trial of recurrent high-grade glioma” (Neuro-Oncology, 2025)
Values joined by “and” are separate entries in the source; they are usually repeats but may differ in a detail not shown here. Equal values may be shown once.

Experiment: CNS penetration: total and unbound drug concentrations in tumor regions, CSF and plasma (LC-MS/MS, equilibrium dialysis);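 further: drug levels in patient tumor tissue from contrast-enhancing and non-enhancing regions sampled under MRI-guided neuronavigation, with plasma and CSF drawn during surgical resection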
Conditions: for Ribociclib.CSF / Ribociclib.Non-enhancing.tumor / Ribociclib.Plasma.conc / Ribociclib.Unbound.CSF / Ribociclib.Unbound.enhancing: per patient; for Kp at 120 h / Kp uu at 120 h / concentration at 5 days: human
[1] = Level 0: Ribociclib 400mg QD + Everolimus 2.5mg QD, sampling 1-3 Hours
[2] = Level 0: Ribociclib 400mg QD + Everolimus 2.5mg QD, sampling 23-25 Hours
[3] = Level 1: Ribociclib 600mg QD + Everolimus 2.5mg QD, sampling 1-3 Hours
[4] = Level 1: Ribociclib 600mg QD + Everolimus 2.5mg QD, sampling 7-9 Hours
[5] = Level 2: Ribociclib 600mg QD + Everolimus 5mg QD, sampling 7-9 Hours
[6] = Level 3: Ribociclib 600mg QD + Everolimus 10mg QD, sampling 7-9 Hours
[7] = Level 4: Ribociclib 600mg QD + Everolimus 50mg once on Day 5, sampling 7-9 Hours
[8] = Level 5: Ribociclib 600mg QD + Everolimus 60mg once on Day 5, sampling 7-9 Hours
[9] = Level 6: Ribociclib 600mg QD + Everolimus 70mg once on Day 5, sampling 7-9 Hours
[10] = enhancing tumor / plasma, oral, 400 mg
[11] = enhancing tumor / plasma, oral, 600 mg
[12] = non-enhancing tumor / plasma, oral, 400 mg
[13] = non-enhancing tumor / plasma, oral, 600 mg

CN(C)C(=O)c1cc2cnc(Nc3ccc(N4CCNCC4)cn3)nc2n1C1CCCC1 [Ribociclib, ribociclib]
Total Ribociclib concentration, CSF, Minimum (400 mg QD 5 days): 36 nM | Total Ribociclib concentration, CSF, Maximum (600 mg QD 5 days): 714 nM | Total Ribociclib concentration, CSF, Median (600 mg QD 5 days): 276 nM | Total Ribociclib concentration, CSF, Minimum (600 mg QD 5 days): 54 nM | Ribociclib.CSF [1]: 0.0707 | Ribociclib.Non-enhancing.tumor [1]: 6.684 | Ribociclib.Plasma.conc [1]: 2.09 and 0.31 | Ribociclib.Unbound.CSF [1]: 0.2008 and 0.0206 | Ribociclib.Unbound.enhancing [1]: 1.4 and 0.419 | Ribociclib.CSF [2]: 0.1931 | Ribociclib.Non-enhancing.tumor [2]: 3.834 | Ribociclib.Plasma.conc [2]: 0.402 and 0.1417 | Ribociclib.Unbound.CSF [2]: 0.0928 | Ribociclib.Unbound.enhancing [2]: 0.92 and 0.1576 | Ribociclib.CSF [3]: 0.0543 | Ribociclib.Non-enhancing.tumor [3]: 7.2608 | Ribociclib.Plasma.conc [3]: 0.1944 | Ribociclib.Unbound.CSF [3]: 0.0207 | Ribociclib.Unbound.enhancing [3]: 0.4205 | Ribociclib.CSF [4]: 0.4701 and 0.7139 | Ribociclib.Non-enhancing.tumor [4]: 30.0728 and 22.3048 | Ribociclib.Plasma.conc [4]: 3.4168 and 1.3485 | Ribociclib.Unbound.CSF [4]: 0.2858 and 0.3152 | Ribociclib.Unbound.enhancing [4]: 4.5 and 3.49 | Ribociclib.CSF [5]: 0.1529 and 0.1758 | Ribociclib.Non-enhancing.tumor [5]: 8.1928 and 11.9076 and 16.496 | Ribociclib.Plasma.conc [5]: 1.151 and 0.8853 and 1.3745 | Ribociclib.Unbound.CSF [5]: 0.1531 and 0.1613 | Ribociclib.Unbound.enhancing [5]: 1.0167 and 1.1852 and 2.1093 | Ribociclib.CSF [6]: 0.2760 and 0.5558 and 0.3667 | Ribociclib.Non-enhancing.tumor [6]: 19.9804 and 11.7316 and 41.6376 | Ribociclib.Plasma.conc [6]: 1.0816 and 1.6009 | Ribociclib.Unbound.CSF [6]: 0.3027 | Ribociclib.Unbound.enhancing [6]: 1.1229 and 3.39 and 0.0047 | Ribociclib.CSF [7]: 0.1707 and 0.4561 | Ribociclib.Non-enhancing.tumor [7]: 4.2684 and 4.8112 | Ribociclib.Plasma.conc [7]: 0.7506 and 1.3586 and 0.9058 | Ribociclib.Unbound.CSF [7]: 0.1543 and 0.2120 and 0.3373 | Ribociclib.Unbound.enhancing [7]: 0.6494 and 0.9352 and 3.453 | Ribociclib.CSF [8]: 0.0807 and 0.3122 and 0.4398 | Ribociclib.Non-enhancing.tumor [8]: 12.238 and 4.126 | Ribociclib.Plasma.conc [8]: 1.163 and 1.8703 and 1.3349 | Ribociclib.Unbound.CSF [8]: 0.0799 and 0.2965 | Ribociclib.Unbound.enhancing [8]: 1.348 and 0.6511 and 0.2648 | Ribociclib.CSF [9]: 0.5436 and 0.0672 and 0.1419 | Ribociclib.Non-enhancing.tumor [9]: 17.8508 and 1.3144 and 1.5982 | Ribociclib.Plasma.conc [9]: 1.4899 and 0.302 and 1.3235 | Ribociclib.Unbound.CSF [9]: 0.1898 and 0.0709 and 0.0882 | Ribociclib.Unbound.enhancing [9]: 1.0559 and 0.5673 and 0.5436 | Kp at 120 h (CSF / plasma, oral, 400 mg): 0.25 | Kp uu at 120 h (CSF / plasma, oral, 400 mg): 1.15 | Kp at 120 h (CSF / plasma, oral, 600 mg): 0.22 | Kp uu at 120 h (CSF / plasma, oral, 600 mg): 0.84 | concentration at 5 days (CSF, oral, Total Ribociclib concentration, Maximum, 400 mg QD 5 days): 216 nM | concentration at 5 days (CSF, oral, Total Ribociclib concentration, Median, 400 mg QD 5 days): 137 nM | concentration at 5 days (CSF, oral, Unbound Ribociclib concentration, Maximum, 400 mg QD 5 days): 201 nM | concentration at 5 days (CSF, oral, Unbound Ribociclib concentration, Maximum, 600 mg QD 5 days): 337 nM | concentration at 5 days (CSF, oral, Unbound Ribociclib concentration, Median, 400 mg QD 5 days): 82 nM | concentration at 5 days (CSF, oral, Unbound Ribociclib concentration, Median, 600 mg QD 5 days): 212 nM | concentration at 5 days (CSF, oral, Unbound Ribociclib concentration, Minimum, 400 mg QD 5 days): 21 nM | concentration at 5 days (CSF, oral, Unbound Ribociclib concentration, Minimum, 600 mg QD 5 days): 21 nM | Kp at 120 h [10]: 12.9 | Kp uu at 120 h [10]: 5.1 | Kp at 120 h [11]: 14.1 | Kp uu at 120 h [11]: 5.67 | concentration at 5 days (enhancing tumor, oral, Total Ribociclib concentration, Maximum, 400 mg QD 5 days): 9900 nM | concentration at 5 days (enhancing tumor, oral, Total Ribociclib concentration, Maximum, 600 mg QD 5 days): 49400 nM | concentration at 5 days (enhancing tumor, oral, Total Ribociclib concentration, Median, 400 mg QD 5 days): 4060 nM | concentration at 5 days (enhancing tumor, oral, Total Ribociclib concentration, Median, 600 mg QD 5 days): 14800 nM | concentration at 5 days (enhancing tumor, oral, Total Ribociclib concentration, Minimum, 400 mg QD 5 days): 2330 nM | concentration at 5 days (enhancing tumor, oral, Total Ribociclib concentration, Minimum, 600 mg QD 5 days): 753 nM | concentration at 5 days (enhancing tumor, oral, Unbound Ribociclib concentration, Maximum, 400 mg QD 5 days): 1400 nM | concentration at 5 days (enhancing tumor, oral, Unbound Ribociclib concentration, Maximum, 600 mg QD 5 days): 4500 nM | concentration at 5 days (enhancing tumor, oral, Unbound Ribociclib concentration, Median, 400 mg QD 5 days): 375 nM | concentration at 5 days (enhancing tumor, oral, Unbound Ribociclib concentration, Median, 600 mg QD 5 days): 1040 nM | concentration at 5 days (enhancing tumor, oral, Unbound Ribociclib concentration, Minimum, 400 mg QD 5 days): 158 nM | concentration at 5 days (enhancing tumor, oral, Unbound Ribociclib concentration, Minimum, 600 mg QD 5 days): 4.7 nM | Kp at 120 h [12]: 8.35 | Kp uu at 120 h [12]: 3.19 | Kp at 120 h [13]: 8.8 | Kp uu at 120 h [13]: 3.78 | concentration at 5 days (non-enhancing tumor, oral, Total Ribociclib concentration, Maximum, 400 mg QD 5 days): 15000 nM | concentration at 5 days (non-enhancing tumor, oral, Total Ribociclib concentration, Maximum, 600 mg QD 5 days): 41600 nM | concentration at 5 days (non-enhancing tumor, oral, Total Ribociclib concentration, Median, 400 mg QD 5 days): 3130 nM | concentration at 5 days (non-enhancing tumor, oral, Total Ribociclib concentration, Median, 600 mg QD 5 days): 11700 nM | concentration at 5 days (non-enhancing tumor, oral, Total Ribociclib concentration, Minimum, 400 mg QD 5 days): 1370 nM | concentration at 5 days (non-enhancing tumor, oral, Total Ribociclib concentration, Minimum, 600 mg QD 5 days): 1310 nM | concentration at 5 days (non-enhancing tumor, oral, Unbound Ribociclib concentration, Maximum, 400 mg QD 5 days): 1770 nM | concentration at 5 days (non-enhancing tumor, oral, Unbound Ribociclib concentration, Maximum, 600 mg QD 5 days): 2340 nM | concentration at 5 days (non-enhancing tumor, oral, Unbound Ribociclib concentration, Median, 400 mg QD 5 days): 170 nM | concentration at 5 days (non-enhancing tumor, oral, Unbound Ribociclib concentration, Median, 600 mg QD 5 days): 693 nM | concentration at 5 days (non-enhancing tumor, oral, Unbound Ribociclib concentration, Minimum, 400 mg QD 5 days): 65 nM | concentration at 5 days (non-enhancing tumor, oral, Unbound Ribociclib concentration, Minimum, 600 mg QD 5 days): 68 nM | concentration at 5 days (non-enhancing tumor, po, unbound drug concentration in the non-enhancing tumor regions, range, ribociclib 400 mg daily oral, 5 days): 65 to 1770 nM | concentration at 5 days (non-enhancing tumor, po, unbound drug concentration in the non-enhancing tumor regions, range, ribociclib 600 mg daily oral, 5 days): 68 to 2340 nM
